Assay results from US20230095520A1, “PHARMACEUTICAL COMPOSITION FOR PREVENTING OR TREATING CANCER COMPRISING AZOLE DERIVATIVES OR PHARMACEUTICALLY ACCEPTABLE SALT THEREOF” (Yungjin Pharm. Co., Ltd., priority 2020, published 2023).

Tests used:
[1] = tested on: MV-4-11 cells; assay: MV-4-11 cell proliferation inhibition (CCK-8); assay type: cell-based; conditions: Homo sapiens, 72 hours; for inhibition at 0.1 µM: MV4-11, MV-4-11, compound concentration 100 nM, read-out: Inhibition rate (%); for IC50: MV4-11, MV-4-11 proliferation
Method: MV-4-11 cells are one of the acute myeloid leukemia cells with a Fms-like tyrosine kinase (FLT3) gene mutation, and these cells are used to test inhibition of proliferation and survival of leukemia cells.
MV-4-11 cells cultured in a 96-well cell culture plate were treated with the compound of the present invention and cultured for 72 hours. Thereafter, the antiproliferative effect of the compound was assayed by the CCK-8 method using a tetrazolium salt.

[2] = target: T1, Recombinant purified human CDK7 (Homo sapiens, UniProt P50613); assay: CDK7 activity inhibition, ADP-Glo kinase assay; assay type: biochemical; conditions: ATP 90 μM, MBP substrate, 2 hours 30° C.
T1 construct: purchased ThermoFisher PV3868
Method: Recombinant purified human CDK7 (ThermoFisher, PV3868) and ADP Glo Kinase Assay Kit (Promega, V9102) were used. CDK7 was diluted with 1× kinase reaction buffer (40 mM Tris-Cl, pH 7.5, 20 mM MgCl2, 0.1 mg/ml BSA and 50 μM DTT) and added to a 96 well plate (CDK7 final concentration per reaction: 50 ng). It was finally treated with the compound of the present invention to a 1% DMSO aqueous solution, and a substrate cocktail containing ATP (final concentration of 90 μM) and 0.2 μg/μl MBP (myelin basic protein) in a total of 25 μl reaction mass was added to a 96 well plate, thereby initiating the enzymatic reaction. After 2 hours of incubation (30° C.), an equal volume (25 μl per reaction) of ADP Glo was added and incubated at room temperature for 60 minutes (30° C.). Thereafter, kinase detection reagent (50 μl per reaction) was added and incubated at room temperature for 30 minutes (30° C.). The kinase activity was measured by the chemiluminescence method according to the ADP Glo Kinase Assay Kit instruction manual, and the CDK7 inhibitory activity of the compounds of the present invention was calculated.

T1 sequence (P50613 whole entry): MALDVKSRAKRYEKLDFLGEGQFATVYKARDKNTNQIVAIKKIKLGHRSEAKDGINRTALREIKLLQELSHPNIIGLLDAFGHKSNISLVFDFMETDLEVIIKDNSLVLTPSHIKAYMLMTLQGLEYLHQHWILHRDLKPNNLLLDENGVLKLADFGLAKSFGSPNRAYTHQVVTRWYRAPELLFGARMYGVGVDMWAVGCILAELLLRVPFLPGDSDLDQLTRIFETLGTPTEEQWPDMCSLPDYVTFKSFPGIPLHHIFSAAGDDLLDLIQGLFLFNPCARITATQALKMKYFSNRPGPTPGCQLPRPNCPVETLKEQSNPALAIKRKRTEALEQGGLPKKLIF
T1 sequence (P51946 whole entry partner): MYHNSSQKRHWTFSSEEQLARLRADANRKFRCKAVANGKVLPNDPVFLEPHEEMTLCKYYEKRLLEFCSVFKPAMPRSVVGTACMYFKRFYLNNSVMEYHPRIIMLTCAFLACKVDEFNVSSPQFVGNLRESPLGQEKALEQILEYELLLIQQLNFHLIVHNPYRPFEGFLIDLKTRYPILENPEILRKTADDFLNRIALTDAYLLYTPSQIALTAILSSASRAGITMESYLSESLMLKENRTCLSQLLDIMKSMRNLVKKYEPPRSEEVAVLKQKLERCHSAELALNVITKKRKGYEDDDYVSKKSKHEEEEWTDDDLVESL
T1 sequence (P51948 whole entry partner): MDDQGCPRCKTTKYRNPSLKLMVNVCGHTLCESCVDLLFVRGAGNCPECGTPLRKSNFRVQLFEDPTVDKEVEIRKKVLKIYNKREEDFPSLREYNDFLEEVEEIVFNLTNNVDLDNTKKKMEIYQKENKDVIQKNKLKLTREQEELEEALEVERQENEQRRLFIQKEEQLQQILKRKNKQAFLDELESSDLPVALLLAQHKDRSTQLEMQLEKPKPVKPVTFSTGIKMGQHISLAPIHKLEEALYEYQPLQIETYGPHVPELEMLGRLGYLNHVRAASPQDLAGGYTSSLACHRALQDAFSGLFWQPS

| Structure (SMILES) | IC50 [1] | IC50 [2] | inhibition at 0.1 µM [1] |
| --- | --- | --- | --- |
| C=CC(=O)Nc1cnc(-c2cccc([C@H](C)C(=O)Nc3ncc(C(F)(F)F)s3)c2)cn1 [Compound 37, (S)-N-(5-(3-(1-oxo-1-((5-(trifluoromethyl)thiazol-2-yl)amino)propan-2-yl)phenyl)pyrazin-2-yl)acrylamide] | – | 17.8 nM | 100% |
| C=CC(=O)Nc1cnc(-c2cncc([C@H](C)C(=O)Nc3ncc(C(F)(F)F)s3)c2)cn1 [Compound 52, (S)-N-(5-(5-(1-oxo-1-((5-(trifluoromethyl)thiazol-2-yl)amino)propan-2-yl)pyridin-3-yl)pyrazin-2-yl)acrylamide] | 4.5 nM | 19.2 nM | – |
| CC(C(=O)Nc1ncc(Cl)s1)c1cncc(-c2cnc(NC(=O)/C=C/CN(C)C)cn2)c1 (stereo not shown) [Compound 73, (E)-N-(5-(5-(1-((5-chlorothiazol-2-yl)amino)-1-oxopropan-2-yl)pyridin-3-yl)pyrazin-2-yl)-4-(dimethylamino)but-2-enamide] | 11 nM | 43.4 nM | – |
| CC(C(=O)Nc1ncc(C(F)(F)F)s1)c1cncc(-c2cnc(NC(=O)/C=C/CN3CCOCC3)cn2)c1 (stereo not shown) [Compound 74, (E)-4-morpholino-N-(5-(5-(1-oxo-1-((5-(trifluoromethyl)thiazol-2-yl)amino)propan-2-yl)pyridin-3-yl)pyrazin-2-yl)but-2-enamide] | 30.3 nM | 77 nM | – |
| Cc1cc(-c2cccc([C@H](C)C(=O)Nc3ncc(C(F)(F)F)s3)c2)cnc1NC(=O)/C=C/CN(C)C [Compound 112, (S,E)-4-(dimethylamino)-N-(3-methyl-5-(3-(1-oxo-1-((5-(trifluoromethyl)thiazol-2-yl)amino)propan-2-yl)phenyl)pyridin-2-yl)but-2-enamide] | – | 17 nM | – |
| CCN(CC)C/C=C/C(=O)Nc1cnc(-c2cccc([C@H](C)C(=O)Nc3ncc(C(F)(F)F)s3)c2)cn1 [Compound 114, (S,E)-4-(diethylamino)-N-(5-(3-(1-oxo-1-((5-(trifluoromethyl)thiazol-2-yl)amino)propan-2-yl)phenyl)pyrazin-2-yl)but-2-enamide] | – | 12 nM | – |
| C[C@H](C(=O)Nc1ncc(C(F)(F)F)s1)c1cccc(-c2cnc(NC(=O)/C=C/CN3CC[C@H](F)C3)cn2)c1 [Compound 117, (E)-4-((S)-3-fluoropyrrolidin-1-yl)-N-(5-(3-((S)-1-oxo-1-((5-(trifluoromethyl)thiazol-2-yl)amino)propan-2-yl)phenyl)pyrazin-2-yl)but-2-enamide] | – | 15.4 nM | – |
| CCc1cnc(NC(=O)C2(c3cccc(-c4cnc(NC(=O)/C=C/CN(C)C)c(C#N)c4)c3)CC2)s1 [Compound 128, (E)-1-(3-(5-cyano-6-(4-(dimethylamino)but-2-enamido)pyridin-3-yl)phenyl)-N-(5-ethylthiazol-2-yl)cyclopropane-1-carboxamide] | – | 50 nM | – |
| CCc1cnc(NC(=O)[C@@H](C)c2cccc(-c3cnc(N(C)C(=O)/C=C/CN(C)C)c(C#N)c3)c2)s1 [Compound 132, (S,E)-N-(3-cyano-5-(3-(1-((5-ethylthiazol-2-yl)amino)-1-oxopropan-2-yl)phenyl)pyridin-2-yl)-4-(dimethylamino)-N-methylbut-2-enamide] | – | 6.6 nM | – |
| CCc1cnc(NC(=O)C2(c3cccc(-c4cnc5c(c4)CCN5C(=O)/C=C/CN(C)C)c3)CC2)s1 [Compound 133, (E)-1-(3-(1-(4-(dimethylamino)but-2-enoyl)-2,3-dihydro-1H-pyrrolo[2,3-b]pyridin-5-yl)phenyl)-N-(5-ethylthiazol-2-yl)cyclopropane-1-carboxamide] | – | 47 nM | – |
| CCc1cnc(NC(=O)[C@@H](C)c2cccc(-c3cnc(NC(=O)/C=C/CN4CCN(C)CC4)c(C#N)c3)c2)s1 [Compound 136, (S,E)-N-(3-cyano-5-(3-(1-((5-ethylthiazol-2-yl)amino)-1-oxopropan-2-yl)phenyl)pyridin-2-yl)-4-(4-methylpiperazin-1-yl)but-2-enamide] | – | 33 nM | – |
| CCc1cnc(NC(=O)C(C)c2cncc(-c3cnc(NC(=O)/C=C/CN(C)C)c(C#N)c3)c2)s1 (stereo not shown) [Compound 137, (E)-N-(5-cyano-5′-(1-((5-ethylthiazol-2-yl)amino)-1-oxopropan-2-yl)-[3,3′-bipyridin]-6-yl)-4-(dimethylamino)but-2-enamide] | – | 13 nM | – |

The remaining compounds from weak to strong by IC50 [2], led by results:

| IC50 [1] | IC50 [2] | Structure (SMILES) | inhibition at 0.1 µM [1] |
| --- | --- | --- | --- |
| – | 59 nM | CCc1cnc(NC(=O)C(CC)c2cccc(-c3ccc(NC(=O)/C=C/CN(C)C)cn3)c2)s1 (stereo not shown) [Compound 131, (E)-4-(dimethylamino)-N-(6-(3-(1-((5-ethylthiazol-2-yl)amino)-1-oxobutan-2-yl)phenyl)pyridin-3-yl)but-2-enamide] | – |
| 45.8 nM | 28 nM | C=CC(=O)Nc1ccc(-c2cccc([C@H](C)C(=O)Nc3ncc(C4CC4)s3)c2)cn1 [Compound 14] | 100% |
| – | 20 nM | COC[C@@H]1CCCN1C/C=C/C(=O)Nc1cnc(-c2cccc([C@H](C)C(=O)Nc3ncc(C(F)(F)F)s3)c2)cn1 [Compound 118, (E)-4-((S)-2-(methoxymethyl)pyrrolidin-1-yl)-N-(5-(3-((S)-1-oxo-1-((5-(trifluoromethyl)thiazol-2-yl)amino)propan-2-yl)phenyl)pyrazin-2-yl)but-2-enamide] | – |
| 5.2 nM | 17.8 nM | CC(C(=O)Nc1ncc(C(F)(F)F)s1)c1cncc(-c2cnc(NC(=O)/C=C/CN(C)C)cn2)c1 (stereo not shown) [Compound 63, (E)-4-(dimethylamino)-N-(5-(5-(1-oxo-1-((5-(trifluoromethyl)thiazol-2-yl)amino)propan-2-yl)pyridin-3-yl)pyrazin-2-yl)but-2-enamide] | – |
| – | 16 nM | C[C@H](C(=O)Nc1ncc(C(F)(F)F)s1)c1cccc(-c2cnc(NC(=O)/C=C/CN3CCCCC3)cn2)c1 [Compound 120, (S,E)-N-(5-(3-(1-oxo-1-((5-(trifluoromethyl)thiazol-2-yl)amino)propan-2-yl)phenyl)pyrazin-2-yl)-4-(piperidin-1-yl)but-2-enamide] | – |
| – | 13.5 nM | C[C@H](C(=O)Nc1ncc(C(F)(F)F)s1)c1cccc(-c2ccc(NC(=O)/C=C/CN(C)C)nc2)c1 [Compound 116, (S,E)-4-(dimethylamino)-N-(5-(3-(1-oxo-1-((5-(trifluoromethyl)thiazol-2-yl)amino)propan-2-yl)phenyl)pyridin-2-yl)but-2-enamide] | – |
| – | 13.2 nM | CCc1cnc(NC(=O)[C@@H](C)c2cccc(-c3cnc(NC(=O)/C=C/CN(C)C)c(C)c3)c2)s1 [Compound 125, (S,E)-4-(dimethylamino)-N-(5-(3-(1-((5-ethylthiazol-2-yl)amino)-1-oxopropan-2-yl)phenyl)-3-methylpyridin-2-yl)but-2-enamide] | – |
| – | 13 nM | CCc1cnc(NC(=O)[C@@H](C)c2cccc(-c3cnc(NC(=O)/C=C/CN4CCOCC4)c(C#N)c3)c2)s1 [Compound 135, (S,E)-N-(3-cyano-5-(3-(1-((5-ethylthiazol-2-yl)amino)-1-oxopropan-2-yl)phenyl)pyridin-2-yl)-4-morpholinobut-2-enamide] | – |
| – | 11 nM | C[C@H](C(=O)Nc1ncc(C2CC2)s1)c1cccc(-c2ccc(NC(=O)/C=C/CN(C)C)nc2)c1 [Compound 15] | 100% |
| – | 8.5 nM | C[C@H](C(=O)Nc1ncc(C(F)(F)F)s1)c1cccc(-c2cnc(NC(=O)/C=C/CN(C)C)c(Cl)c2)c1 [Compound 113, (S,E)-N-(3-chloro-5-(3-(1-oxo-1-((5-(trifluoromethyl)thiazol-2-yl)amino)propan-2-yl)phenyl)pyridin-2-yl)-4-(dimethylamino)but-2-enamide] | – |
| – | 8 nM | CCc1cnc(NC(=O)C(CC)c2cccc(-c3cnc(NC(=O)/C=C/CN(C)C)c(C#N)c3)c2)s1 (stereo not shown) [Compound 138, (E)-N-(3-cyano-5-(3-(1-((5-ethylthiazol-2-yl)amino)-1-oxobutan-2-yl)phenyl)pyridin-2-yl)-4-(dimethylamino)but-2-enamide] | – |
| – | 6 nM | CCc1cnc(NC(=O)[C@@H](C)c2cccc(-c3cnc4c(c3)CCN4C(=O)/C=C/CN(C)C)c2)s1 [Compound 122, (S,E)-2-(3-(1-(4-(dimethylamino)but-2-enoyl)-2,3-dihydro-1H-pyrrolo[2,3-b]pyridin-5-yl)phenyl)-N-(5-ethylthiazol-2-yl)propanamide] | – |
| – | 5.3 nM | CCc1cnc(NC(=O)[C@@H](C)c2cccc(-c3cnc(NC(=O)/C=C/CN4CC5CC4CO5)c(C#N)c3)c2)s1 (stereo partly drawn) [Compound 123, (E)-4-(2-oxa-5-azabicyclo[2.2.1]heptan-5-yl)-N-(3-cyano-5-(3-((S)-1-((5-ethylthiazol-2-yl)amino)-1-oxopropan-2-yl)phenyl)pyridin-2-yl)but-2-enamide] | – |
| – | 4.5 nM | C=CC(=O)Nc1ncc(-c2cccc([C@H](C)C(=O)Nc3ncc(C(F)(F)F)s3)c2)cc1C#N [Compound 124, (S)-N-(3-cyano-5-(3-(1-oxo-1-((5-(trifluoromethyl)thiazol-2-yl)amino)propan-2-yl)phenyl)pyridin-2-yl)acrylamide] | – |
